Results reported in the NIST ThermoML archive (doi:10.1021/je101144k).

Tests used:
[1] = wn = mass fraction of the nth substance listed; settings: for surface tension liquid-gas: Maximal bubble pressure; for mass density / viscosity: 101 kPa, Liquid; for mass density: Pycnometric method
[2] = molar heat capacity at constant pressure; wn = mass fraction of the nth substance listed; settings: 101 kPa, Liquid, Small sample (50 mg) DSC

N[C@@H](CO)C(=O)[O-].[K+] [potassium L-serinate] + O
Settings	mass density, [1] [kg/m3]	molar heat capacity at constant pressure, [2] [J/K/mol]	surface tension liquid-gas, [1] [mN/m]	viscosity, [1] [mPa·s]
298.15 K, w1 = 0.072	1034.7	–	73.2	1.121
298.15 K, w1 = 0.143	1068.7	–	74.1	1.372
298.15 K, w1 = 0.286	1137	–	77.9	1.913
298.15 K, w1 = 0.43	1201.2	–	80.4	2.757
298.15 K, w1 = 0.573	1263.5	–	82.2	4.202
303.15 K, w1 = 0.072	1033.1	74.59	–	1.032
303.15 K, w1 = 0.143	1066.7	76.59	–	1.261
303.15 K, w1 = 0.286	1134.4	80.47	–	1.736
303.15 K, w1 = 0.43	1198.8	88.33	–	2.485
303.15 K, w1 = 0.573	1260.5	98.9	–	3.685
308.15 K, w1 = 0.072	–	75.17	–	–
308.15 K, w1 = 0.143	–	77.62	–	–
308.15 K, w1 = 0.286	–	81.19	–	–
308.15 K, w1 = 0.43	–	88.91	–	–
308.15 K, w1 = 0.573	–	99.62	–	–
313.15 K, w1 = 0.072	1028.8	75.56	–	0.87
313.15 K, w1 = 0.143	1061.9	78.03	–	1.043
313.15 K, w1 = 0.286	1129.1	81.67	–	1.402
313.15 K, w1 = 0.43	1193.1	89.77	–	1.996
313.15 K, w1 = 0.573	1254.4	100.35	–	2.927
318.15 K, w1 = 0.072	–	76.13	–	–
318.15 K, w1 = 0.143	–	78.65	–	–
318.15 K, w1 = 0.286	–	82.15	–	–
318.15 K, w1 = 0.43	–	90.35	–	–
318.15 K, w1 = 0.573	–	101.07	–	–
323.15 K, w1 = 0.072	1024.6	76.52	–	0.73
323.15 K, w1 = 0.143	1056.9	79.06	–	0.896
323.15 K, w1 = 0.286	1123.8	82.63	–	1.14
323.15 K, w1 = 0.43	1187.5	91.22	–	1.767
323.15 K, w1 = 0.573	1248.5	101.43	–	2.556
328.15 K, w1 = 0.072	–	76.9	–	–
328.15 K, w1 = 0.143	–	79.47	–	–
328.15 K, w1 = 0.286	–	83.35	–	–
328.15 K, w1 = 0.43	–	91.79	–	–
328.15 K, w1 = 0.573	–	102.15	–	–
333.15 K, w1 = 0.072	1019.1	77.29	–	0.645
333.15 K, w1 = 0.143	1051.5	80.09	–	0.806
333.15 K, w1 = 0.286	1118	83.83	–	0.989
333.15 K, w1 = 0.43	1181.6	92.37	–	1.56
333.15 K, w1 = 0.573	1242.3	102.51	–	2.278
338.15 K, w1 = 0.072	–	77.67	–	–
338.15 K, w1 = 0.143	–	80.5	–	–
338.15 K, w1 = 0.286	–	84.31	–	–
338.15 K, w1 = 0.43	–	92.95	–	–
338.15 K, w1 = 0.573	–	102.87	–	–
343.15 K, w1 = 0.072	1013.9	78.06	–	0.564
343.15 K, w1 = 0.143	1046.3	81.12	–	0.671
343.15 K, w1 = 0.286	1112.5	84.79	–	0.855
343.15 K, w1 = 0.43	1175.9	93.24	–	1.423
343.15 K, w1 = 0.573	1236.3	103.23	–	2.063
348.18 K, w1 = 0.072	–	78.25	–	–
348.18 K, w1 = 0.143	–	81.53	–	–
348.18 K, w1 = 0.286	–	85.27	–	–
348.18 K, w1 = 0.43	–	93.81	–	–
348.18 K, w1 = 0.573	–	103.23	–	–
353.15 K, w1 = 0.072	1007.8	78.44	–	0.494
353.15 K, w1 = 0.143	1039.6	81.74	–	0.564
353.15 K, w1 = 0.286	1106	85.51	–	0.732
353.15 K, w1 = 0.43	1169.6	94.1	–	1.255
353.15 K, w1 = 0.573	1229.6	104.68	–	1.919
